Laboratory results reported in US20240059677A1, “SUBSTITUTED PYRIMIDINE DERIVATIVES AS NICOTINIC ACETYLCHOLINESTERASE RECEPTOR ALPHA 6 MODULATOR” (priority 2020, published 2024).

What follows are compounds tested against T1, human nAChRα6-α3 chimera, in addition to β2 and β3^V273S subunits (Homo sapiens, UniProt P32297+Q15825) (assay: fluorescence-based calcium assay: inhibition of nicotine stimulated nAChRα6 activity (FLIPR)). Conditions: HEK cell line stably expressing the receptor; 10 min pre-incubation, nicotine EC80; 10-point curve, duplicate wells; read-out: IC50.
T1 construct: expressed in transfected cells
T1 sequence (Q05901 25-458 V273S): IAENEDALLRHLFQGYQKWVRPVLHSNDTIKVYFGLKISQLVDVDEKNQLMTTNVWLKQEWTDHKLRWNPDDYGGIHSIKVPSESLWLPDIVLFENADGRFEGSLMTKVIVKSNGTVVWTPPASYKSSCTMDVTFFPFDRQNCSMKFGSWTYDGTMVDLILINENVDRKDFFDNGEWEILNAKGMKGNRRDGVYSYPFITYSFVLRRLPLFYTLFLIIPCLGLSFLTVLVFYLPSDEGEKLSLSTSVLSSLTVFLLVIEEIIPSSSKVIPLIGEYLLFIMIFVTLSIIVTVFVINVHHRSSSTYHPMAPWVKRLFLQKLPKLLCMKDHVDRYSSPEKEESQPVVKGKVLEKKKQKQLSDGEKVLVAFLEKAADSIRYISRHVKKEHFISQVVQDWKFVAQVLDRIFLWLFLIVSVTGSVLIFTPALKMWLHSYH
T1 sequence (P17787 26-502, stated change not applied, further chain): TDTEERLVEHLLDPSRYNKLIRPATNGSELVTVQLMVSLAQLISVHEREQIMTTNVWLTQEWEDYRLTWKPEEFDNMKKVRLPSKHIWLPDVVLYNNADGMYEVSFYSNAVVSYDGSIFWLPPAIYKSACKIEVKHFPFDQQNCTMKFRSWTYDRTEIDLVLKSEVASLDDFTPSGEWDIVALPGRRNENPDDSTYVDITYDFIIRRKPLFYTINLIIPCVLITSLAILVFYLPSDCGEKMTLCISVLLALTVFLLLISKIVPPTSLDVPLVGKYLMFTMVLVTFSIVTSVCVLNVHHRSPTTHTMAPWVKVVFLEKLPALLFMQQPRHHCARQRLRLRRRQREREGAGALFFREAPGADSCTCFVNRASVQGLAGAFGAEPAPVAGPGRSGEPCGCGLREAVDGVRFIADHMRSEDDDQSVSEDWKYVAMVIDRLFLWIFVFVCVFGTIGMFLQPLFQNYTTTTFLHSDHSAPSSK
T1 sequence (Q15825+P32297 fused with the stated changes): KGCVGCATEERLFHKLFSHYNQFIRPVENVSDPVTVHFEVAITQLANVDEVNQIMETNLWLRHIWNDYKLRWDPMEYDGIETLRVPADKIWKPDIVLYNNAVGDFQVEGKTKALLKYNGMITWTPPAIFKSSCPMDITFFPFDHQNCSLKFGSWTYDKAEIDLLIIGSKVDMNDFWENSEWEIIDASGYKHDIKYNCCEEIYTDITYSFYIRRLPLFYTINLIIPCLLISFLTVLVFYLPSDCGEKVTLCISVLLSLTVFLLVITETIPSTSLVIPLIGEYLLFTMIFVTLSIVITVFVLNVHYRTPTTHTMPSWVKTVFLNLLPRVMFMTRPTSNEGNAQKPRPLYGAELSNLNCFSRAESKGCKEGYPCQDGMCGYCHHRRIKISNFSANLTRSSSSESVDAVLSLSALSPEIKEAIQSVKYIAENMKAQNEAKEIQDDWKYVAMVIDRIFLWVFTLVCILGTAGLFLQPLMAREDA
Method in brief: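 HEK cells stably expressing the human α6-α3 chimera with β2 and β3^V273S were loaded with calcium dye at 30° C. Compounds were pre-incubated for 10 min before nicotine at EC80, and the fluorescence change was read on a FLIPR. Ten-point half-log concentration-response, duplicate wells.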

**Q.** `Cc1nc(NCCC2CCCN2C)ncc1-c1ccccc1` (stereo not drawn) [Example 1, 4-methyl-N-(2-(1-methylpyrrolidin-2-yl)ethyl)-5-phenylpyrimidin-2-amine] was tested. Which IC50 did it give?
**A.** 0.048 µM

**Q.** With `CN1CCCC1CCNc1ncc(-c2ccccc2)cn1` (stereo not drawn) [Example 2, N-(2-(1-methylpyrrolidin-2-yl)ethyl)-5-phenylpyrimidin-2-amine] as the compound, how does the IC50 read?
**A.** 0.302 µM

**Q.** With `CN1CCCC1CCNc1ncc(-c2ccc(F)cc2)cn1` (stereo not drawn) [Example 3, 5-(4-fluorophenyl)-N-(2-(1-methylpyrrolidin-2-yl)ethyl)pyrimidin-2-amine] as the compound, how does the IC50 read?
**A.** 0.331 µM

**Q.** How did the IC50 turn out when `CN1CCCC(CNc2ncc(-c3ccc(F)cc3)cn2)C1` (stereo not drawn) [Example 4, 5-(4-fluorophenyl)-N-((1-methylpiperidin-3-yl)methyl)pyrimidin-2-amine] was run?
**A.** 0.211 µM

**Q.** For `CN1CCCC(Nc2ncc(-c3ccc(F)cc3)cn2)C1` (stereo not drawn) [Example 5, 5-(4-fluorophenyl)-N-(1-methylpiperidin-3-yl)pyrimidin-2-amine], which IC50 is on record?
**A.** 0.635 µM

**Q.** Which IC50 does the source give for `CC(C)N1CCCC(Nc2ncc(-c3ccc(F)cc3)cn2)C1` (stereo not drawn) [Example 6, 5-(4-fluorophenyl)-N-(1-isopropylpiperidin-3-yl)pyrimidin-2-amine] here?
**A.** 0.123 µM

**Q.** `CN(C)C1CCCC(Nc2ncc(-c3ccc(F)cc3)cn2)C1` (stereo not drawn) [Example 7, N^1-(5-(4-fluorophenyl)pyrimidin-2-yl)-N^3,N^3-dimethylcyclohexane-1,3-diamine] was tested. Which IC50 did it give?
**A.** 0.59 µM

**Q.** Which IC50 does the source give for `CN1CCCCC1CNc1ncc(-c2ccc(F)cc2)cn1` (stereo not drawn) [Example 8, 5-(4-fluorophenyl)-N-((1-methylpiperidin-2-yl)methyl)pyrimidin-2-amine] here?
**A.** 0.286 µM

**Q.** With `Cc1nc(NC2CCCN(C(C)C)C2)ncc1-c1ccc(F)cc1` (stereo not drawn) [Example 9, 5-(4-fluorophenyl)-N-(1-isopropylpiperidin-3-yl)-4-methyl-pyrimidin-2-amine] as the compound, how does the IC50 read?
**A.** 0.264 µM

**Q.** How did the IC50 turn out when `Cc1nc(NCC2(N(C)C)CCCC2)ncc1-c1ccc(F)cc1F` [Example 11, 5-(2,4-difluorophenyl)-N-((1-(dimethylamino)cyclopentyl)methyl)-4-methyl-pyrimidin-2-amine] was run?
**A.** 0.246 µM

**Q.** For `Cc1nc(NC2CC3CCC(C2)N3C)ncc1-c1ccc(F)cc1F` (stereo not drawn) [Example 12, N-(5-(2,4-difluorophenyl)-4-methyl-pyrimidin-2-yl)-8-methyl-8-azabicyclo[3.2.1]octan-3-amine], which IC50 is on record?
**A.** 0.108 µM

**Q.** With `Cc1nc(NCC2CCN(C)C2)ncc1-c1ccc(F)cc1F` (stereo not drawn) [Example 13, 5-(2,4-difluorophenyl)-4-methyl-N-((1-methylpyrrolidin-3-yl)methyl) pyrimidin-2-amine] as the compound, how does the IC50 read?
**A.** 0.05 µM

**Q.** `Cc1nc(NCCC2CCCN2C)ncc1-c1ccc(F)cc1F` (stereo not drawn) [Example 14, 5-(2,4-difluorophenyl)-4-methyl-N-(2-(1-methylpyrrolidin-2-yl)ethyl) pyrimidin-2-amine] was tested. Which IC50 did it give?
**A.** 0.042 µM

**Q.** `Cc1nc(NCC2CCCN2C)nnc1-c1ccc(F)cc1F` (stereo not drawn) [Example 15, 6-(2,4-difluorophenyl)-5-methyl-N-((1-methylpyrrolidin-2-yl)methyl)-1,2,4-triazin-3-amine] was tested. Which IC50 did it give?
**A.** 1.94 µM

**Q.** `COc1ccc(-c2cnc(NCCC3CCCN3C)nc2C)c(F)c1` (stereo not drawn) [Example 16, 5-(2-fluoro-4-methoxyphenyl)-4-methyl-N-(2-(1-methylpyrrolidin-2-yl)ethyl)pyrimidin-2-amine] was tested. Which IC50 did it give?
**A.** 0.075 µM

**Q.** How did the IC50 turn out when `COc1ccc(-c2cnc(NCC3CCCCN3C)nc2C)c(F)c1` (stereo not drawn) [Example 17, 5-(2-fluoro-4-methoxyphenyl)-4-methyl-N-((1-methylpiperidin-2-yl)methyl) pyrimidin-2-amine] was run?
**A.** 0.02 µM

**Q.** How did the IC50 turn out when `CN1CCCC1CNc1ncc(-c2ccc(F)cc2F)c(C#N)n1` (stereo not drawn) [Example 19, 5-(2,4-difluorophenyl)-2-(((1-methylpyrrolidin-2-yl)methyl)amino) pyrimidine-4-carbonitrile] was run?
**A.** 0.216 µM

**Q.** For `Cc1nc(NCC2CCCCN2C)nnc1-c1ccc(F)cc1F` (stereo not drawn) [Example 20, 6-(2,4-difluorophenyl)-5-methyl-N-((1-methylpiperidin-2-yl)methyl)-1,2,4-triazin-3-amine], which IC50 is on record?
**A.** 0.49 µM

**Q.** Which IC50 does the source give for `Cc1nc(NCCC2CCCN2C)nnc1-c1ccc(F)cc1F` (stereo not drawn) [Example 21, 6-(2,4-difluorophenyl)-5-methyl-N-(2-(1-methylpyrrolidin-2-yl)ethyl)-1,2,4-triazin-3-amine] here?
**A.** 0.599 µM

**Q.** For `Cc1nc(NC2CCN(C(C)C)C2)ncc1-c1ccc(F)cc1F` (stereo not drawn) [Example 22, 5-(2,4-difluorophenyl)-N-(1-isopropylpyrrolidin-3-yl)-4-methyl-pyrimidin-2-amine], which IC50 is on record?
**A.** 0.05 µM

**Q.** For `COc1ccc(-c2nnc(NCCC3CCCN3C)nc2C)c(F)c1` (stereo not drawn) [Example 23, 6-(2-fluoro-4-methoxyphenyl)-5-methyl-N-(2-(1-methylpyrrolidin-2-yl)ethyl)-1,2,4-triazin-3-amine], which IC50 is on record?
**A.** 0.233 µM

**Q.** Which IC50 does the source give for `Cc1nc(NC[C@@H]2CCCN2C)ncc1-c1ccc(F)cc1F` [Example 24a, (S)-5-(2,4-difluorophenyl)-4-methyl-N-((1-methylpyrrolidin-2-yl)methyl) pyrimidin-2-amine] here?
**A.** 0.062 µM

**Q.** `COc1ccc(-c2cnc(NCC3CCCCN3C)nc2C#N)c(F)c1` (stereo not drawn) [Example 25, 5-(2-fluoro-4-methoxyphenyl)-2-(((1-methylpiperidin-2-yl)methyl)amino) pyrimidine-4-carbonitrile] was tested. Which IC50 did it give?
**A.** 0.034 µM

**Q.** How did the IC50 turn out when `COc1ccc(-c2nnc(NCC3CCCCN3C)nc2C)c(F)c1` (stereo not drawn) [Example 26, 6-(2-fluoro-4-methoxyphenyl)-5-methyl-N-((1-methylpiperidin-2-yl)methyl)-1,2,4-triazin-3-amine] was run?
**A.** 0.156 µM

**Q.** How did the IC50 turn out when `COc1ccc(-c2cnc(NCCC3CCCN3C)nc2C#N)c(F)c1` (stereo not drawn) [Example 27, 5-(2-fluoro-4-methoxyphenyl)-2-((2-(1-methylpyrrolidin-2-yl)ethyl)amino) pyrimidine-4-carbonitrile] was run?
**A.** 0.056 µM

**Q.** `Cc1nc(NC2CCN(C)C2)ncc1-c1ccc(F)cc1F` (stereo not drawn) [Example 29, 5-(2,4-difluorophenyl)-4-methyl-N-(1-methylpyrrolidin-3-yl)pyrimidin-2-amine] was tested. Which IC50 did it give?
**A.** 0.095 µM

**Q.** How did the IC50 turn out when `COc1ccc(-c2cnc(NCC3CCCN(C)C3)nc2C)c(F)c1` (stereo not drawn) [Example 30, 5-(2-fluoro-4-methoxyphenyl)-4-methyl-N-((1-methylpiperidin-3-yl)methyl) pyrimidin-2-amine] was run?
**A.** 0.082 µM

**Q.** Which IC50 does the source give for `COc1ccc(-c2cnc(NCC3CCN(C)C3)nc2C#N)c(F)c1` (stereo not drawn) [Example 31, 5-(2-fluoro-4-methoxyphenyl)-2-(((1-methylpyrrolidin-3-yl)methyl)amino) pyrimidine-4-carbonitrile] here?
**A.** 0.082 µM

**Q.** For `COc1ccc(-c2cnc(NCC3COCCN3C)nc2C)c(F)c1` (stereo not drawn) [Example 32, 5-(2-fluoro-4-methoxyphenyl)-4-methyl-N-((4-methylmorpholin-3-yl)methyl)pyrimidin-2-amine], which IC50 is on record?
**A.** 0.099 µM

**Q.** Which IC50 does the source give for `COc1ccc(F)c(-c2cnc(NCC3CCCCN3C)nc2C)c1` (stereo not drawn) [Example 33, 5-(2-fluoro-5-methoxyphenyl)-4-methyl-N-((1-methylpiperidin-2-yl)methyl) pyrimidin-2-amine] here?
**A.** 0.045 µM

**Q.** `COc1ccc(F)c(-c2cnc(NCC3CCCN(C)C3)nc2C)c1` (stereo not drawn) [Example 34, 5-(2-fluoro-5-methoxyphenyl)-4-methyl-N-((1-methylpiperidin-3-yl)methyl) pyrimidin-2-amine] was tested. Which IC50 did it give?
**A.** 0.13 µM

**Q.** With `COc1ccc(-c2cnc(NCC3CN(C)CCO3)nc2C)c(F)c1` (stereo not drawn) [Example 36, 5-(2-fluoro-4-methoxyphenyl)-4-methyl-N-((4-methylmorpholin-2-yl)methyl)pyrimidin-2-amine] as the compound, how does the IC50 read?
**A.** 0.14 µM

**Q.** Which IC50 does the source give for `COc1ccc(-c2cnc(NCC3CCN(C)C3)nc2C2CC2)c(F)c1` (stereo not drawn) [Example 37, 4-cyclopropyl-5-(2-fluoro-4-methoxyphenyl)-N-((1-methylpyrrolidin-3-yl)methyl)pyrimidin-2-amine] here?
**A.** 0.103 µM

**Q.** How did the IC50 turn out when `COc1ccc(-c2cnc(NC3CCN(C)CC3)nc2C)c(F)c1` [Example 40, 5-(2-fluoro-4-methoxyphenyl)-4-methyl-N-(1-methylpiperidin-4-yl) pyrimidin-2-amine] was run?
**A.** 0.068 µM

**Q.** How did the IC50 turn out when `COc1ccc(-c2cnc(NC3CCN(C(C)C)CC3)nc2C)c(F)c1` [Example 41, 5-(2-fluoro-4-methoxyphenyl)-N-(1-isopropylpiperidin-4-yl)-4-methyl-pyrimidin-2-amine] was run?
**A.** 0.081 µM

**Q.** For `Cc1nc(NCc2cccnc2)ncc1-c1ccc(F)cc1F` [Example 42, 5-(2,4-difluorophenyl)-4-methyl-N-(pyridin-3-ylmethyl)pyrimidin-2-amine], which IC50 is on record?
**A.** 1.2 µM

**Q.** Which IC50 does the source give for `COc1ccc(-c2cnc(NC3CCC(N(C)C)C3)nc2C(F)(F)F)c(F)c1` (stereo not drawn) [Example 43, N^1-(5-(2-fluoro-4-methoxyphenyl)-4-(trifluoromethyl)pyrimidin-2-yl)-N^3,N^3-dimethylcyclopentane-1,3-diamine] here?
**A.** 0.178 µM

**Q.** `COc1ccc(-c2cnc(NC3CCOCC3)nc2C)c(F)c1` [Example 45, 5-(2-fluoro-4-methoxyphenyl)-4-methyl-N-(tetrahydro-2H-pyran-4-yl) pyrimidin-2-amine] was tested. Which IC50 did it give?
**A.** 1.31 µM

**Q.** For `COc1ccc(-c2cnc(NC3CCCOC3)nc2C)c(F)c1` (stereo not drawn) [Example 46, 5-(2-fluoro-4-methoxyphenyl)-4-methyl-N-(tetrahydro-2H-pyran-3-yl) pyrimidin-2-amine], which IC50 is on record?
**A.** 2.18 µM

**Q.** Which IC50 does the source give for `COc1ccc(-c2cnc(NCC3CCCO3)nc2C)c(Cl)c1` (stereo not drawn) [Example 47, 5-(2-chloro-4-methoxyphenyl)-4-methyl-N-((tetrahydrofuran-2-yl)methyl) pyrimidin-2-amine] here?
**A.** 1.25 µM

Same assay, conditions: IC50 (μM), HEK cell line stably expressing the receptor; 10 min pre-incubation, nicotine EC80; 10-point curve, duplicate wells

**Q.** With `CCN1CCCCC1CNc1ncc(-c2ccc(F)cc2F)c(C)n1` (stereo not drawn) [Example 10, 5-(2,4-difluorophenyl)-N-((1-ethylpiperidin-2-yl)methyl)-4-methyl-pyrimidin-2-amine] as the compound, how does the IC50 read?
**A.** 0.201 µM

**Q.** Which IC50 does the source give for `COc1ccc(-c2cnc(NCC3CCCCN3C)nc2C)c(Cl)c1` (stereo not drawn) [Example 35, 5-(2-chloro-4-methoxyphenyl)-4-methyl-N-((1-methylpiperidin-2-yl)methyl) pyrimidin-2-amine] here?
**A.** 0.029 µM
